Experimental data: ChEMBL document CHEMBL2073892, “Substitution of Trp1242 of TM17 alters substrate specificity of human multidrug resistance protein 3” (Am J Physiol Gastrointest Liver Physiol, 2003)

Target: Multidrug resistance associated protein (Homo sapiens) (UniProt Q96QA9)
Assay: TP_TRANSPORTER: uptake in membrane vesicles from HEK293T cells
Assay type: functional, cell membranes
Conditions: HEK293; Membrane vesicle

Chain of Multidrug resistance associated protein (Homo sapiens) (Q96QA9 as listed by the source): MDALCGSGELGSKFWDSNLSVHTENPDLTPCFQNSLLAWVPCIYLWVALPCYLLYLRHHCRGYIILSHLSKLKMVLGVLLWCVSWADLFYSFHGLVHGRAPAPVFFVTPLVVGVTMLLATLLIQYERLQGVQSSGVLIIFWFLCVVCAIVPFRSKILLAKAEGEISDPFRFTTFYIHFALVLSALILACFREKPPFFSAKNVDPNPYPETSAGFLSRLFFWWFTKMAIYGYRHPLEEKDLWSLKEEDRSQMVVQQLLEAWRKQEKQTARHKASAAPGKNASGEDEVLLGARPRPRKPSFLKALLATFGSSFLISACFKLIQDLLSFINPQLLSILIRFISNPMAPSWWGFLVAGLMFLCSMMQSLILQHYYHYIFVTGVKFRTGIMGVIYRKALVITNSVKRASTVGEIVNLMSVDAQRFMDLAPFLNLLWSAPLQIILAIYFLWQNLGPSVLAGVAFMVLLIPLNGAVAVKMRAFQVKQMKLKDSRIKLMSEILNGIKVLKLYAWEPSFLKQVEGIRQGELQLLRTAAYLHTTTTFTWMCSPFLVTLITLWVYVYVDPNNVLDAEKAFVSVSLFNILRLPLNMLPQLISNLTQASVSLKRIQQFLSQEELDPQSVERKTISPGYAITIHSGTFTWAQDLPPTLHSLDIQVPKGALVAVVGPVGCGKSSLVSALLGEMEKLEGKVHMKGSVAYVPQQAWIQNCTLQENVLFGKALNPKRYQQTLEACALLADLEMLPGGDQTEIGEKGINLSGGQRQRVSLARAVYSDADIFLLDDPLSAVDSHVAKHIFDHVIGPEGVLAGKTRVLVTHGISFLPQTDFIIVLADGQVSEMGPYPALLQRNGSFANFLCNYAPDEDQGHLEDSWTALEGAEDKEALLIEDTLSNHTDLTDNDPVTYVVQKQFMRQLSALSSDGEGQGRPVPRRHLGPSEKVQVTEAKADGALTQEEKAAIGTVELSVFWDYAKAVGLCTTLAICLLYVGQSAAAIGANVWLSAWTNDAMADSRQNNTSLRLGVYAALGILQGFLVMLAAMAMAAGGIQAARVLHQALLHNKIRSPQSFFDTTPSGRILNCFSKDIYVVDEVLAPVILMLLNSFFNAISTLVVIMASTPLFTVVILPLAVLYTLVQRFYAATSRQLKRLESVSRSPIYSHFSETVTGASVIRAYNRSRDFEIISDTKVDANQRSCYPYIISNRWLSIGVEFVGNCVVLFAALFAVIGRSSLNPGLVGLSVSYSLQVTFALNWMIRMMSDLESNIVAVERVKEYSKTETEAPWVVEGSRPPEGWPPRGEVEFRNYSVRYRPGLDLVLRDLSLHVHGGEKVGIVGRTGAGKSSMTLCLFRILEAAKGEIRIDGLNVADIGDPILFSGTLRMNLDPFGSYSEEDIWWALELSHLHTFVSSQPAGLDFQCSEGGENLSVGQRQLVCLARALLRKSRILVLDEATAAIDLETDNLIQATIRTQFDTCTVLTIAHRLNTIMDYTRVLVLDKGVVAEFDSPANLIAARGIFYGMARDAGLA

CCCCC/C=C\C\C=C/C=C/C=C/[C@@H](SC[C@@H](NC(=O)CC[C@H](N)C(=O)O)C(=O)NCC(=O)O)[C@@H](O)CCCC(=O)O
Activity: substrate [+]

CN(Cc1cnc2nc(N)nc(N)c2n1)c1ccc(C(=O)N[C@@H](CCC(=O)O)C(=O)O)cc1
Activity: substrate [+]
